This assay addresses T1, LXRβ (Homo sapiens, UniProt P55055).
T1 construct: Co-transfection expression plasmids, comprising full-length LXRα (pCMX-h LXRα[…] or LXRβ (pCMX-hLXRβ)); expressed in transfected cells; host or cells: CV-1 African Green Monkey Kidney Cells
T1 sequence (P55055 1-460): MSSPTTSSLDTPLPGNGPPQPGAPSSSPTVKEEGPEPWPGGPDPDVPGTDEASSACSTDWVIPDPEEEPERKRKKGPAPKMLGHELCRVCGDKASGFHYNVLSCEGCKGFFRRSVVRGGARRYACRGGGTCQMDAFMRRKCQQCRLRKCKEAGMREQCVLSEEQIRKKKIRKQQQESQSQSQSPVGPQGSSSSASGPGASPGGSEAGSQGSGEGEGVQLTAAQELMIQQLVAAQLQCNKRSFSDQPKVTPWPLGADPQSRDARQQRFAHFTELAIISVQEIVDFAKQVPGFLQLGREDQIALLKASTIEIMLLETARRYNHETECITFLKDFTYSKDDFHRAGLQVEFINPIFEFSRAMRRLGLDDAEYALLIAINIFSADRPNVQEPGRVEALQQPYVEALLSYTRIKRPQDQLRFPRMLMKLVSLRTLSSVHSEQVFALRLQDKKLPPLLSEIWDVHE
T1 sequence (P19793 1-462 partner): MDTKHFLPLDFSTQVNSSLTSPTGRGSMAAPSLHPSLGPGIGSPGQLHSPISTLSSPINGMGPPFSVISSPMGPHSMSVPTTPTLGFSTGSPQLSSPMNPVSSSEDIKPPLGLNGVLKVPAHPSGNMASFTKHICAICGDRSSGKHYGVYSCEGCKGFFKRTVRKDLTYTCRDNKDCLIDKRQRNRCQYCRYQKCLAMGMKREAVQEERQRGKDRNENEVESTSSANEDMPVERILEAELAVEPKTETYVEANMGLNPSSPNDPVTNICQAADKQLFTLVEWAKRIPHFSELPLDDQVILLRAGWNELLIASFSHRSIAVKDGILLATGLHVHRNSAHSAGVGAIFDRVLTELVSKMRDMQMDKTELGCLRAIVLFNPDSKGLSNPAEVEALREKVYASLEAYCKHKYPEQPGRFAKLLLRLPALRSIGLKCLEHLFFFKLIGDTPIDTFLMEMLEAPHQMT
Briefly: Co-transfection assay (LXRE luciferase reporter), LXRβ. The conditions noted are these: for EC50: CV-1 cells transfected with pCMX-hLXRβ and LXREx1-Tk-Luciferase, 20 hours incubation; for Emax: LXRβ co-transfection, relative to high control 1-(2,4-difluorobenzyl)-2-oxo-6-(4-phenoxyphenyl)-4-(trifluoromethyl)-1,2-dihydropyridine-3-carbonitrile, read-out: % Efficacy. Format: cell-based. Summed up: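 Cell-based LXRβ agonism measured as LXRE-luciferase induction in transiently transfected CV-1 cells after 20 h treatment. Potency is the curve-fit EC50; efficacy is expressed as percent of a full-agonist control's maximal response.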
For orientation: Reporter assays use an easily measured gene product as a stand-in for the process of interest.

Each structure is given as a SMILES string.

As usually defined, the EC50 is the midpoint of the concentration-response curve. `Cc1nc(C(C)(F)F)cn1-c1ccc(-c2cccc(S(C)(=O)=O)c2)cc1-c1ocnc1-c1ccc(OC(F)(F)F)cc1` [Example 362, 5-{4-[4-(1,1-difluoroethyl)-2-methyl-1H-imidazol-1-yl]-3′-(methylsulfonyl)biphenyl-3-yl}-4-{4-[(trifluoromethyl)oxy]phenyl}-1,3-oxazole]: the 50% effective concentration (EC50) stood at 691 nM and the Emax was found to be 75%.

Regarding `CCC(F)(F)c1cn(-c2ccc(-c3cc(F)c(CO)c(S(C)(=O)=O)c3)cc2-c2ocnc2-c2ccc(OC(F)(F)F)cc2)c(C)n1` [Example 363, {4′-[4-(1,1-difluoropropyl)-2-methyl-1H-imidazol-1-yl]-3-fluoro-5-(methylsulfonyl)-3′-(4-{4-[(trifluoromethyl)oxy]phenyl}-1,3-oxazol-5-yl)biphenyl-4-yl}methanol], the concentration for a half-maximal effect (EC50) came to 288 nM and the Emax stood at 58%.

In the case of `CCC(F)(F)c1cn(-c2ccc(-c3cccc(S(C)(=O)=O)c3)cc2-c2ocnc2-c2ccc(OC(F)(F)F)cc2)c(C)n1` [Example 364, 5-{4-[4-(1,1-difluoropropyl)-2-methyl-1H-imidazol-1-yl]-3′-(methylsulfonyl)biphenyl-3-yl}-4-{4-[(trifluoromethyl)oxy]phenyl}-1,3-oxazole], a half-maximal effect (EC50) was put at 410 nM and the Emax amounted to 55%.

Regarding `Cc1nc(C(F)(F)F)cn1-c1ccc(-c2cc(F)c(CO)c(S(C)(=O)=O)c2)cc1-c1ncoc1-c1ccc(Cl)cc1` [Example 365, {3′-[5-(4-chlorophenyl)-1,3-oxazol-4-yl]-3-fluoro-5-(methylsulfonyl)-4′-[2-methyl-4-(trifluoromethyl)-1H-imidazol-1-yl]biphenyl-4-yl}methanol], it took 307 nM to reach a half-maximal effect (EC50) and the Emax turned out to be 81%.

Turning to `Cc1nc(-c2cc(-c3cccc(S(C)(=O)=O)c3)ccc2-n2cc(C(F)(F)F)nc2C)c(-c2ccc(OC(F)(F)F)cc2)o1` [Example 366, 2-methyl-4-{3′-(methylsulfonyl)-4-[2-methyl-4-(trifluoromethyl)-1H-imidazol-1-yl]biphenyl-3-yl}-5-{4-[(trifluoromethyl)oxy]phenyl}-1,3-oxazole], the EC50 was 77 nM and the Emax came to 89%.

Take `Cc1nc(-c2cc(-c3cccc(S(C)(=O)=O)c3)ccc2-n2cc(C(F)(F)F)nc2C)c(-c2cc(F)c(OC(F)F)c(F)c2)o1` [Example 367, (4-(difluoromethoxy)-3,5-difluorophenyl)-2-methyl-4-(4-(2-methyl-4-(trifluoromethyl)-1H-imidazol-1-yl)-3′-(methylsulfonyl)-[, 1′-biphenyl]-3-yl)oxazole]: the midpoint of the response, the EC50, lay at 175 nM and the Emax is 78%.

Consider `Cc1nc(-c2cc(-c3cccc(S(C)(=O)=O)c3)ccc2-n2cc(C(F)(F)F)nc2C)c(-c2ccc3c(c2)C(O)C(F)(F)O3)o1` (centres unmarked) [Example 368, 2,2-difluoro-5-(2-methyl-4-(4-(2-methyl-4-(trifluoromethyl)-1H-imidazol-1-yl)-3′-(methylsulfonyl)biphenyl-3-yl)oxazol-5-yl)-2,3-dihydrobenzofuran-3-ol], for which a half-maximal response (EC50) required 465 nM and the Emax worked out at 77%.

On to `Cc1nc(-c2cc(-c3cccc(S(C)(=O)=O)c3)ccc2-n2cc(CO)nc2C)c(-c2ccc3c(c2)OC(F)(F)O3)o1` [Example 369, (1-(3-(5-(2,2-difluorobenzo[d][1,3]dioxol-5-yl)-2-methyloxazol-4-yl)-3′-(methylsulfonyl)biphenyl-4-yl)-2-methyl-1H-imidazol-4-yl)methanol], for which the response was half-maximal at 1140 nM (EC50) and the Emax was found to be 29%.

In the case of `Cc1nc(-c2cc(-c3cc(F)c(CO)c(S(C)(=O)=O)c3)ccc2-n2cc(C(C)(C)O)nc2C)c(-c2ccc3c(c2)OC(F)(F)O3)o1` [Example 370, 2-(1-(3-(5-(2,2-difluorobenzo[d][1,3]dioxol-5-yl)-2-methyloxazol-4-yl)-3′-fluoro-4′-(hydroxymethyl)-5′-(methylsulfonyl)biphenyl-4-yl)-2-methyl-1H-imidazol-4-yl)propan-2-ol], the response was half-maximal at 1040 nM (EC50) and the Emax came out at 26%.

In the case of `Cc1nc(-c2cc(-c3cccc(S(C)(=O)=O)c3)ccc2-n2cc(C#N)nc2C)c(-c2ccc3c(c2)OC(F)(F)O3)o1` [Example 371, 1-(3-(5-(2,2-difluorobenzo[d][1,3]dioxol-5-yl)-2-methyloxazol-4-yl)-3′-(methylsulfonyl)biphenyl-4-yl)-2-methyl-1H-imidazole-4-carbonitrile], the EC50 amounted to 248 nM and the Emax was determined as 45%.

As for `Cc1nc(-c2cc(-c3cc(F)c(CO)c(S(C)(=O)=O)c3)ccc2-n2cc(C(F)(F)F)nc2C)c(-c2ccc(OC(F)(F)F)cc2)o1` [Example 373, [3-fluoro-5-(methylsulfonyl)-4′-[2-methyl-4-(trifluoromethyl)-1H-imidazol-1-yl]-3′-(2-methyl-5-{4-[(trifluoromethyl)oxy]phenyl}-1,3-oxazol-4-yl)biphenyl-4-yl]methanol], the EC50 is 40 nM and the Emax was found to be 97%.

In the case of `Cc1nc(-c2cc(-c3cc(F)c(CO)c(S(C)(=O)=O)c3)ccc2-n2cc(C(F)(F)F)nc2C)c(-c2ccc(Cl)cc2)o1` [Example 374, {3′-[5-(4-chlorophenyl)-2-methyl-1,3-oxazol-4-yl]-3-fluoro-5-(methylsulfonyl)-4′-[2-methyl-4-(trifluoromethyl)-1H-imidazol-1-yl]biphenyl-4-yl}methanol], the EC50 is 50 nM and the Emax came out at 72%.

In the case of `Cc1nc(-c2cc(-c3cccc(S(C)(=O)=O)c3)ccc2-n2cc(C(F)(F)F)nc2C)c(-c2ccc(Cl)cc2)o1` [Example 375, 5-(4-chlorophenyl)-2-methyl-4-{3′-(methylsulfonyl)-4-[2-methyl-4-(trifluoromethyl)-1H-imidazol-1-yl]biphenyl-3-yl}-1,3-oxazole], it took 103 nM to reach a half-maximal effect (EC50) and the Emax stood at 84%.

Turning to `Cc1nc(-c2cc(-c3cccc(S(C)(=O)=O)c3)ccc2-n2cc(C(F)(F)F)nc2C)c(-c2ccc(OC(F)F)c(F)c2)o1` [Example 376, 5-(4-(difluoromethoxy)-3-fluorophenyl)-2-methyl-4-(4-(2-methyl-4-(trifluoromethyl)-1H-imidazol-1-yl)-3′-(methylsulfonyl)biphenyl-3-yl)oxazole], it took 64 nM to reach a half-maximal effect (EC50) and the Emax was 84%.

For the compound `Cc1nc(-c2cc(-c3cc(F)c(CO)c(S(C)(=O)=O)c3)ccc2-n2cc(C(F)(F)F)nc2C)c(-c2ccc(OC(F)F)c(F)c2)o1` [Example 377], the EC50 is 48 nM and the Emax came to 77%.

As to `Cc1nc(-c2cc(-c3cc(F)c(CO)c(S(C)(=O)=O)c3)ccc2-n2cc(C(F)(F)F)nc2C)c(-c2cccn(C(C)C)c2=O)o1` [Example 378, 3-(4-(3′-fluoro-4′-(hydroxymethyl)-4-(2-methyl-4-(trifluoromethyl)-1H-imidazol-1-yl)-5′-(methylsulfonyl)biphenyl-3-yl)-2-methyloxazol-5-yl)-1-isopropylpyridin-2(1H)-one], the EC50 is 49 nM and the Emax is 24%.

Turning to `Cc1nc(-c2cc(-c3cccc(S(C)(=O)=O)c3)ccc2-n2cc(C(F)(F)F)nc2C)c(-c2cccn(C(C)C)c2=O)o1` [Example 379, 1-isopropyl-3-(2-methyl-4-(4-(2-methyl-4-(trifluoromethyl)-1H-imidazol-1-yl)-3′-(methylsulfonyl)biphenyl-3-yl)oxazol-5-yl)pyridin-2(1H)-one], a half-maximal response (EC50) required 825 nM and the Emax was 21%.

As for `COc1cc(-c2oc(C)nc2-c2cc(-c3cccc(S(C)(=O)=O)c3)ccc2-n2cc(C(F)(F)F)nc2C)ccc1OC(F)F` [Example 380, 5-(4-(difluoromethoxy)-3-methoxyphenyl)-2-methyl-4-(4-(2-methyl-4-(trifluoromethyl)-1H-imidazol-1-yl)-3′-(methylsulfonyl)biphenyl-3-yl)oxazole], the 50% effective concentration (EC50) was 53 nM and the Emax came to 91%.

Turning to `COc1cc(-c2oc(C)nc2-c2cc(-c3cc(F)c(CO)c(S(C)(=O)=O)c3)ccc2-n2cc(C(F)(F)F)nc2C)ccc1OC(F)F` [Example 381, (3′-(5-(4-(difluoromethoxy)-3-methoxyphenyl)-2-methyloxazol-4-yl)-3-fluoro-4′-(2-methyl-4-(trifluoromethyl)-1H-imidazol-1-yl)-5-(methylsulfonyl)biphenyl-4-yl)methanol], it took 18 nM to reach a half-maximal effect (EC50) and the Emax was determined as 81%.

The values are drawn from patent US9834542B2, “LXR modulators” (BRISTOL-MYERS SQUIBB COMPANY, priority 2013, dated 2017).
